Tests used:
HBV = experiment: qPCR assay for HBV in vitro test (HBV DNA content in HepG2.2.15 cells); format: cell-based
Description: qPCR Assay for HBV In Vitro Test
The HBV DNA content in HepG2.2.15 cells was detected by real-time qPCR assay, and the EC50 values of the compounds were used as indicators to evaluate the inhibitory effect of the compounds on HBV.
2.1 Cell Line: HepG2.2.15 Cells
3.1 HepG2.2.15 cells (4×10^4 cells/well) were seeded in a 96-well plate and incubated at 37° C. under 5% CO 2 overnight.
3.2 On the second day, the compound was diluted into a total of 8 concentrations with 3-fold gradient dilution. Different concentrations of the compound were added to the culture wells, in duplicate. The final concentration of DMSO in the culture medium was 1%. 1 μM GLS4 was used as 100% inhibition control; 1% DMSO was used as 0% inhibition control.
3.3 On the fifth day, the fresh culture medium containing the compound was replaced.
3.4 On the eighth day, the culture medium in the culture wells was collected and DNA was extracted using a high-throughput DNA purification kit (Qiagen-51162). Refer to the product manual for the specific procedure.
3.1 15 μl of reaction mixture was added to each well of a 96-well PCR plate, then 10 μl of sample DNA or standard of HBV DNA to each well.
3.2 PCR reaction conditions: heating at 95° C. for 10 minutes; then denaturing at 95° C. for 15 seconds, extension at 60° C. for 1 minute, a total of 40 cycles. […]

Hepatitis B virus = conditions: prior art, Science, 299 (2003), 893-896; cited from earlier work

Structure (SMILES) | EC50 (HBV; Hepatitis B virus, 192 h, HBV DNA in culture medium by real-time qPCR, day 8, read-out: Concentration for 50% of inhibition (EC50) value on HBV) [nM] | inhibitory effect on HBV DNA (HBV; qPCR, conclusion in words) | IC50 (Hepatitis B virus) [nM]
COC(=O)C1=C2C[C@H](NS(N)(=O)=O)CN2C(c2nccs2)=N[C@H]1c1ccc(F)c(F)c1F [Compound 1] | ≤ 100 | significant inhibitory effect on HBV DNA | –
Nc1ccn([C@@H]2CS[C@H](CO)O2)c(=O)n1 [Iamivudine] | – | – | 300

— patent US10253030B2, “Crystal form, preparation method and intermediate of dihydropyrido ring compound” (QILU PHARMACEUTICAL CO., LTD., priority 2015, dated 2019)
